A word on the IC50: it is the point on the concentration scale where inhibition reaches its midpoint.

Numbered stars: 1 amine (or outer) side, 2 acyl side, 3 side chain; on linkers, the order of the positions; unused ones are H or OH. Square brackets hold non-standard residues; d marks the D form. Side chains are listed from the residue outwards. Peptide text beside a SMILES is read from it. * marks the point of attachment. C18 diacid = O=C(O)CCCCCCCCCCCCCCCCC(=O)*; γGlu = O=C(O)[C@H](CCC(=O)[*:2])N[*:1]; AEEA = NCCOCCOCC(=O)O; Aib = CC(C)(N)C(=O)O

The results in this text go back to patent US9474790B2, “Stable, protracted GLP-1/glucagon receptor co-agonists for medical use” (Novo Nordisk A/S, priority 2013, dated 2016).

For this experiment, the target named is T1, human GLP-1 receptor (Homo sapiens, UniProt P43220).
T1 construct: expressed in transfected cells; host or cells: BHK cells (parent BHKTS13), clone FCW467-12A/KZ10-1, with CRE luciferase
As to the kind of experiment: GLP-1 receptor binding, 125I-GLP-1 displacement SPA on isolated membranes. The note with it: displacement of 125I-GLP-1 from membranes; read-out: IC50 GLP-1R. In a few lines: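 SPA displacement of 125I-GLP-1(7-36)NH2 from membranes of BHK cells expressing human GLP-1 receptor, with WGA beads, in 50 mM HEPES, 5 mM EGTA, 5 mM MgCl2, 0.005% Tween 20, pH 7.4. Incubated 2 h at 30°C; IC50 by non-linear regression, run at ≤0.001% or 2.0% final serum albumin.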

T1 sequence (P43220 24-463): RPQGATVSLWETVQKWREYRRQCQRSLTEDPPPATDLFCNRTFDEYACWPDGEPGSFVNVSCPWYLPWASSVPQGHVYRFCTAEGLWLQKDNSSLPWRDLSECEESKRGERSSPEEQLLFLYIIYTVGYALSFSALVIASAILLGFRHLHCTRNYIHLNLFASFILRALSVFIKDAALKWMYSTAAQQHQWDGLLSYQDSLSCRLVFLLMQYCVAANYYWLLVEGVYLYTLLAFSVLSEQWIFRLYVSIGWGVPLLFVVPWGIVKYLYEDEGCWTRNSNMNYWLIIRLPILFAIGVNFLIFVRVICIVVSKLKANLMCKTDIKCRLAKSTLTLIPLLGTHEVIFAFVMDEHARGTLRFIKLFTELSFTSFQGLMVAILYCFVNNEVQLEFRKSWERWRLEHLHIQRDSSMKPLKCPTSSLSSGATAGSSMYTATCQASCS

Turning to `CC(C)C[C@H](NC(=O)[C@H](Cc1ccc(O)cc1)NC(=O)[C@H](CCCCN)NC(=O)[C@H](CO)NC(=O)[C@H](CC(C)C)NC(=O)[C@H](CC(=O)O)NC(=O)[C@H](CO)NC(=O)[C@@H](NC(=O)[C@H](Cc1ccccc1)NC(=O)[C@@H](NC(=O)CNC(=O)[C@H](CCC(N)=O)NC(=O)C(C)(C)NC(=O)[C@@H](N)Cc1c[nH]cn1)[C@@H](C)O)[C@@H](C)O)C(=O)N[C@@H](CCC(=O)O)C(=O)N[C@@H](CO)C(=O)N[C@@H](CCCNC(=N)N)C(=O)N[C@@H](CCCNC(=N)N)C(=O)N[C@@H](C)C(=O)N[C@@H](CCCNC(=N)N)C(=O)N[C@@H](CCC(=O)O)C(=O)N[C@@H](Cc1ccccc1)C(=O)N[C@H](C(=O)N[C@@H](CCC(N)=O)C(=O)N[C@@H](Cc1c[nH]c2ccccc12)C(=O)N[C@@H](CC(C)C)C(=O)N[C@@H](CC(C)C)C(=O)N[C@@H](CCCCNC(=O)COCCOCCNC(=O)COCCOCCNC(=O)CC[C@H](NC(=O)CC[C@H](NC(=O)CC[C@H](NC(=O)CCCCCCCCCCCCCCCCC(=O)O)C(=O)O)C(=O)O)C(=O)O)C(=O)N[C@H](C(N)=O)[C@@H](C)O)C(C)C` [Example 42, N^ε28-[2-[2-[2-[[2-[2-[2-[[(4S)-4-carboxy-4-[[(4S)-4-carboxy-4-[[(4S)-4-carboxy-4-(17-carboxyheptadecanoylamino)butanoyl]amino]butanoyl]amino]butanoyl]amino]ethoxy]ethoxy]acetyl]amino]ethoxy]ethoxy]acetyl]-[Aib2,Leu10,Glu15,Arg20,Glu21,Leu27,Lys28]-Glucagon amide] (H-H[Aib]QGTFTSDLSKYLESRRAREFVQWLLK([AEEA-AEEA-γGlu-γGlu-γGlu-C18 diacid])T-NH2; N-terminus assumed), the IC50 came out at 0.3 nM.
With `CC(C)C[C@H](NC(=O)[C@H](Cc1ccc(O)cc1)NC(=O)[C@H](CCCCN)NC(=O)[C@H](CO)NC(=O)[C@H](CC(C)C)NC(=O)[C@H](CC(=O)O)NC(=O)[C@H](CO)NC(=O)[C@@H](NC(=O)[C@H](Cc1ccccc1)NC(=O)[C@@H](NC(=O)CNC(=O)[C@H](CCC(N)=O)NC(=O)C(C)(C)NC(=O)[C@@H](N)Cc1c[nH]cn1)[C@@H](C)O)[C@@H](C)O)C(=O)N[C@@H](CC(=O)O)C(=O)N[C@@H](C)C(=O)N[C@@H](CCCNC(=N)N)C(=O)N[C@@H](CCCNC(=N)N)C(=O)N[C@@H](C)C(=O)N[C@@H](CCCNC(=N)N)C(=O)N[C@@H](CCC(=O)O)C(=O)N[C@@H](Cc1ccccc1)C(=O)N[C@H](C(=O)N[C@@H](CCC(N)=O)C(=O)N[C@@H](Cc1c[nH]c2ccccc12)C(=O)N[C@@H](CC(C)C)C(=O)N[C@@H](CC(C)C)C(=O)N[C@@H](CCCCNC(=O)CC[C@H](NC(=O)CC[C@H](NC(=O)COCCOCCNC(=O)COCCOCCNC(=O)CC[C@H](NC(=O)CCCCCCCCCCCCCCCCC(=O)O)C(=O)O)C(=O)O)C(=O)O)C(=O)N[C@H](C(N)=O)[C@@H](C)O)C(C)C` [Example 43, N^ε28-[(4S)-4-carboxy-4-[[(4S)-4-carboxy-4-[[2-[2-[2-[[2-[2-[2-[[(4S)-4-carboxy-4-(17-carboxyheptadecanoylamino)butanoyl]amino]ethoxy]ethoxy]acetyl]amino]ethoxy]ethoxy]acetyl]amino]butanoyl]amino]butanoyl]-[Aib2,Leu10,Ala16,Arg20,Glu21,Leu27,Lys28]-Glucagon amide] (H-H[Aib]QGTFTSDLSKYLDARRAREFVQWLLK([γGlu-γGlu-AEEA-AEEA-γGlu-C18 diacid])T-NH2; N-terminus assumed) the figure was 0.3 nM.
